Test results published in paper PMC10354055, “An optimized Nurr1 agonist provides disease-modifying effects in Parkinson’s disease models” (Nature Communications, 2023).
“And” between values parts separate entries of the source, which are not always exact repeats. Identical values can stand only once.

Tests used:
MN9D cells [1] = assay: Cell viability, MTT reduction, MPP+-treated MN9D cells; assay type: cell-based, mouse
Experimental: Cell viability was determined using 3-(4,5-dimethylthiazol-2-yl)-2,5-diphenyltetrazolium bromide (MTT) as previously described[60]. Briefly, cells were incubated with 5 mg/ml of MTT (Sigma-Aldrich) solution for 3.5 h at 37 °C. MTT formazan crystals were dissolved in 10 times the volume of MTT solvent (4 mM HCl and 0.1% Nonidet P-40 in isopropanol) and the absorbance from the generated blue formazan was measured at 570 nm after 15 min incubation at room temperature. Cell viability was calculated as a percentage (%) of MTT reduction relative to vehicle control.

MN9D cells [2] = assay: Cytotoxicity, LDH release, MPP+-treated MN9D cells; assay type: cell-based, mouse
Experimental: Cells were transfected with Nurr1 subcloned into pcDNA3.1 vector[23] for Nurr1 overexpression (OE). […] Nurr1 OE or KD by transfection was analyzed by Western blot.
Cellular oxidative stress was detected using the DCFDA Cellular ROS Assay Kit (Abcam) according to the manufacturer’s protocol. Briefly, cells seeded in black clear bottom 96 well plate were stained with DCFDA solution (20 µM) for 45 min at 37 °C. […] Cytotoxicity was determined by measuring lactate dehydrogenase (LDH) release into the culture medium using a LDH cytotoxicity detection kit (Roche)[33]. Absorbance was measured at 490 nm with a microplate reader and cytotoxicity was calculated as a percentage (%) relative to 1% TritonX-100 control. Cell viability was determined using 3-(4,5-dimethylthiazol-2-yl)-2,5-diphenyltetrazolium bromide (MTT) as previously described. Briefly, cells were incubated with 5 mg/ml of MTT (Sigma-Aldrich) solution for 3.5 h at 37 °C. MTT formazan crystals were dissolved in 10 times the volume of MTT solvent (4 mM HCl and 0.1% Nonidet P-40 in isopropanol) and the absorbance from the generated blue formazan was measured at 570 nm after 15 min incubation at room temperature. Cell viability was calculated as a percentage (%) of MTT reduction relative to vehicle control.

N27-A cells = assay: Cellular oxidative stress, DCFDA ROS assay, N27-A cells; assay type: cell-based, rat; conditions: CQ 100 µM, 4A7C-301 1 µM
[3] = test system: AAV-αSyn-induced male mice; assay: pS129 αSyn+ cells in SNpc, AAV-αSyn-induced mice; assay type: in vivo, mouse; conditions: αSynWT-mice
Excerpt: Adeno-associated viruses (AAVs) expressing GFP only or αSyn (wild-type or A53T) were kindly provided by Dr. Yoon Seong Kim from the University of Central Florida. Recombinant AAV vectors were produced using modified pAAV-IRES-hrGFP (Agilent) to express wild-type and mutant human αSyn under control of the CMV promoter. Viral particles (AAV2) were produced at the University of Iowa Viral Vector Core according to standard operating procedures (https://medicine.uiowa.edu/vectorcore/). […] AAV vectors were delivered into the substantia nigra unilaterally by stereotaxic surgery.
Images were acquired using a KEYENCE microscope and quantified as the number or optical density of immunoreactive cells using ImageJ software.
The numbers of TH^+ DA neurons, NeuN^+ neurons, pS129 αSyn^+ cells in the SN and Iba-1^+ microglia in the SN and striatum were stereologically counted in six coronal sections (30 µm thickness) taken every 6th section (180 µm intervals) for each brain. The boundaries of the SN and striatum were delimited at low magnification (4X) to estimate each total area. Immunoreactive cells were counted with images taken at high magnification (×40) by a single blinded investigator. The group mean of the total number of immunoreactive cells from each brain was transformed as percentage of the number in the control group (%). For AAV-αSyn-induced mice, the group mean of the total number of cells in the ipsilateral side was transformed as a percentage of that observed in the contralateral side.

CCN(CC)CCCC(C)Nc1ccnc2cc(Cl)ccc12 (stereo not drawn) [CQ, chloroquine]
MTT reduction (%) (MN9D cells [1]; Fig. S3c, with MPP+, 1 µM): 53.8043% and 53.2609% and 51.6304% | MTT reduction (%) (MN9D cells [1]; Fig. S3c, with MPP+, 5 µM): 55.4348% and 56.5217% | MTT reduction (%) (MN9D cells [1]; Fig. S3c, with MPP+, 10 µM): 57.6087% and 55.9783% and 57.0652% | MTT reduction (%) (MN9D cells [1]; Fig. S3c, with MPP+, 50 µM): 61.413% and 59.7826% | MTT reduction (%) (MN9D cells [1]; Fig. S3c, with MPP+, 100 µM): 62.5% and 61.413% and 64.6739% | MTT reduction (%) (MN9D cells [1]; Fig. S3e, MPP+, Control, CQ 100 µM, 4A7C-301 1 µM): 62.8947% and 66.3158% and 61.0526% and 60.2632% | MTT reduction (%) (MN9D cells [1]; Fig. S3e, MPP+, Nurr1 KD, CQ 100 µM, 4A7C-301 1 µM): 34.7368% and 29.4737% and 30.7895% and 32.6316% | MTT reduction (%) (MN9D cells [1]; Fig. S3e, MPP+, Nurr1 OE, CQ 100 µM, 4A7C-301 1 µM): 86.0526% and 90.2105% and 84.3158% and 89.4737% | LDH release (%) (MN9D cells [2]; Fig. S3f, MPP+, Control, CQ 100 µM, 4A7C-301 1 µM): 40.5948% and 42.0584% and 38.5456% and 42.2156% | LDH release (%) (MN9D cells [2]; Fig. S3f, MPP+, Nurr1 KD, CQ 100 µM, 4A7C-301 1 µM): 55.6098% and 56.4684% | LDH release (%) (MN9D cells [2]; Fig. S3f, MPP+, Nurr1 OE, CQ 100 µM, 4A7C-301 1 µM): 26.1572% and 27.9568% and 27.0629% | LDH release (%) (MN9D cells [2]; Fig. S3d, with MPP+, 1 µM): 41.5124% and 43.1347% and 42.8643% | LDH release (%) (MN9D cells [2]; Fig. S3d, with MPP+, 5 µM): 41.2806% and 41.8214% and 41.3965% | LDH release (%) (MN9D cells [2]; Fig. S3d, with MPP+, 10 µM): 39.6197% and 38.7699% and 40.5081% | LDH release (%) (MN9D cells [2]; Fig. S3d, with MPP+, 50 µM): 38.5767% and 38.7312% and 38.1518% | LDH release (%) (MN9D cells [2]; Fig. S3d, with MPP+, 100 µM): 37.1862% and 37.0703% and 38.1905% | MPP+-induced ROS levels (in words) (N27-A cells): significantly reduced | phosphorylated αSyn (αSynS129) in SN (in words) [3]: significantly diminished
